Experimental data as given in ChEMBL document CHEMBL2413005, “A novel necroptosis inhibitor-necrostatin-21 and its SAR study” (Bioorg Med Chem Lett, 2013).

How the values were obtained:
[1] = Inhibition of RIP1/JNK2 (unknown origin)-mediated necrosis
[2] = target: Mitogen-activated protein kinase 10/Receptor-interacting serine/threonine-protein kinase 1 (Homo sapiens) (UniProt P53779+Q13546); assay: Ratio of necrostatin-21 EC50 to compound EC50 for RIP1/JNK2 (unknown origin)-mediated necrosis; format: protein assay
Mitogen-activated protein kinase 10/Receptor-interacting serine/threonine-protein kinase 1 (Homo sapiens), sequence (P53779 whole entry, looked up): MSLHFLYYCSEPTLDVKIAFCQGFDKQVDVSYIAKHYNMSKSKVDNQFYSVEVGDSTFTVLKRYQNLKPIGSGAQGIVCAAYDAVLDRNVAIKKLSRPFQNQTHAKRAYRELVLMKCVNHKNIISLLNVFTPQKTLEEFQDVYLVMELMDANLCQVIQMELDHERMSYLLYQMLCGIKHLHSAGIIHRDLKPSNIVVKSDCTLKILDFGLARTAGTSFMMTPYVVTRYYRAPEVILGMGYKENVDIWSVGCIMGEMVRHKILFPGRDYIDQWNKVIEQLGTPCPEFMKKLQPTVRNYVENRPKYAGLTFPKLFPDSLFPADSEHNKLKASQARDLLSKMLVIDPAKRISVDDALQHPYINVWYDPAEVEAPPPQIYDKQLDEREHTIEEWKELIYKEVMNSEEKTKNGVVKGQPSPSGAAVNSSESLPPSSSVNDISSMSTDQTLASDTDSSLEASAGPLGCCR
Mitogen-activated protein kinase 10/Receptor-interacting serine/threonine-protein kinase 1 (Homo sapiens), sequence (Q13546 whole entry, looked up): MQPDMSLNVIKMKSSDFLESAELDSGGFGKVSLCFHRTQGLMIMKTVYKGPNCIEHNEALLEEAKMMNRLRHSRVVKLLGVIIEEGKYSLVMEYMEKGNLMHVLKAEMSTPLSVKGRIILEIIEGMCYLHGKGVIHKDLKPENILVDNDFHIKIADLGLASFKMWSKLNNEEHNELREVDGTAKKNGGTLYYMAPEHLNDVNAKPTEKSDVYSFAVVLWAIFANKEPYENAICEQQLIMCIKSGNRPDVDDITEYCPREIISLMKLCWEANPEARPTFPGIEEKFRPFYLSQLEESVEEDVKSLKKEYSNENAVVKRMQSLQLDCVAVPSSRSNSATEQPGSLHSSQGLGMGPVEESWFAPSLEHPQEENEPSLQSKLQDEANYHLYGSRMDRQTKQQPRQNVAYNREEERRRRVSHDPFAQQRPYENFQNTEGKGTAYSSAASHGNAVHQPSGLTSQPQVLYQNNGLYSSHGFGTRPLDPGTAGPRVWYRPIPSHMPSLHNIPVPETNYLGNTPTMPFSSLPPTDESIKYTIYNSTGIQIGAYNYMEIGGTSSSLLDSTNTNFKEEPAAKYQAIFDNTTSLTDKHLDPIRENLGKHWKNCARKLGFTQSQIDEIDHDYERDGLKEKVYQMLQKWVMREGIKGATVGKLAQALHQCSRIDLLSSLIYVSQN

c1[nH]nc2c1CCc1c-2[nH]c2cc3c(cc12)OCO3
EC50 [1]: 0.15 µM

Clc1ccc2c3c([nH]c2c1)-c1n[nH]cc1CC3
EC50 [1]: 0.25 µM

Cc1cccc2c3c([nH]c12)-c1n[nH]cc1CC3
EC50 [1]: 0.76 µM

CCc1ccc2[nH]c3c(c2c1)CCc1c[nH]nc1-3
EC50 [1]: 0.78 µM

Fc1ccc2[nH]c3c(c2c1)CCc1c[nH]nc1-3
EC50 [1]: 0.14 µM

c1ccc2c3c([nH]c2c1)-c1n[nH]cc1C3
EC50 [1]: 5.79 µM

COc1ccc2c3c([nH]c2c1)-c1n[nH]cc1CC3
EC50 [1]: 0.1 µM

COc1cccc2[nH]c3c(c12)CCc1c[nH]nc1-3
EC50 [1]: 1.45 µM

c1[nH]nc2c1CCc1c-2[nH]c2cc3c(cc12)OCCO3
EC50 [1]: 2.64 µM

COc1ccc2[nH]c3c(c2c1)CCc1c[nH]nc1-3
EC50 [1]: 0.17 µM

COc1cc2[nH]c3c(c2cc1C#N)CCc1c[nH]nc1-3
Ratio EC50 [2]: > 35 | EC50 [1]: 0.014 µM

COc1cc(OC)c2c3c([nH]c2c1)-c1n[nH]cc1CC3
EC50 [1]: 0.11 µM

Fc1cccc2c3c([nH]c12)-c1n[nH]cc1CC3
EC50 [1]: 0.86 µM

O=[N+]([O-])c1cccc2c3c([nH]c12)-c1n[nH]cc1CC3
EC50 [1]: 6.32 µM

N#Cc1ccc2c3c([nH]c2c1)-c1n[nH]cc1CC3
EC50 [1]: 0.11 µM

COc1cc2[nH]c3c(c2cc1OC)CCc1c[nH]nc1-3
EC50 [1]: 0.047 µM

Clc1cccc2[nH]c3c(c12)CCc1c[nH]nc1-3
EC50 [1]: 0.67 µM

N#Cc1ccc2[nH]c3c(c2c1)CCc1c[nH]nc1-3
EC50 [1]: 0.08 µM

FC(F)(F)c1ccc2c3c([nH]c2c1)-c1n[nH]cc1CC3
EC50 [1]: 0.25 µM

CC1Cc2c([nH]c3ccccc23)-c2n[nH]cc21 (configuration not stated)
EC50 [1]: 0.81 µM

c1ccc2c(c1)[nH]c1c2ccc2c[nH]nc21
EC50 [1]: 3.62 µM
